These results are taken from patent US20200032347A1, “RNA profiling for individualized diet and treatment advice” (Stichting Katholieke Universiteit, priority 2017, published 2020).

The subject of one test is SKRC-17 cells. The test is described as follows: Cell proliferation assay (SRB, cellular protein content). It counts as cell-based, human. Conditions: proliferation assays. Here is the method: (§1) Cellular protein content was determined as a measure of cell proliferation, using suforhodamine B (SRB) assays as described in (83). Sensitivity to EGCG was determined by adding a concentration range of EGCG (0-50 μM) or DMSO solvent one day after seeding 1,000 cells per well in 96-wells plates (Nunc, Roskilde, Denmark). An SRB assay was performed after 3 days, and IC50 values were determined in GraphPad Prism using the sigmoidal dose response with variable slope nonlinear regression analysis.
(§2) Furthermore cell proliferation over 8 days in presence or absence of EGCG was determined. Cells were seeded at 1,000 cells per well and at day 1 and day 5 after seeding the medium was changed for medium with or without 10 μM EGCG. Controls were incubated with DMSO. Protein content was determined every 2 days. Experiments were performed in triplicate and statistical significance was determined using one-way ANOVA with bonferroni correction.

The subject of another test is SKRC-7 cells. The test is described as above. It counts as cell-based, human. The settings on record: proliferation assays. As to the method: as §1, §2

Take `NC(=O)c1ccc(N)nc1` [Compound 6-AN, 6-aminonicotinamide]: the cell proliferation response entry is “significantly decreased cell proliferation” in the test on SKRC-17 cells and “increase of cell proliferation” in the test with SKRC-7 cells.
